Data reported in PubChem BioAssay AID250 (DTP/NCI, 2004).
Several values for one entry are separate records, joined by “and”; a condition that tells them apart may be missing. Equal entries are not always repeated. Inconclusive results and toxic doses are left out. Rule for the calls: active = survival T/C of 150% or more; inactive = T/C below 125% in these data.

Tested on: BDF1 mice, L1210 leukemia sc, survival T/C
Experiment: NCI In Vivo Anticancer Drug Screen. Data for tumor model L1210 Leukemia (subcutaneous) in B6D2F1 (BDF1) mice
Conditions: endpoint: median survival time, higher = longer survival
In short: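 Mice carrying transplanted tumors received test compounds, and survival or tumor size was measured. Values are the treated-group measurement (T) divided by that of the vehicle-treated control group (C).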

[1] = dose: 130.0 mg/kg/injection, schedule: Q01DX Z (sc), vehicle: water
[2] = dose: 216.0 mg/kg/injection, schedule: Q01DX Z (sc), vehicle: water
[3] = dose: 360.0 mg/kg/injection, schedule: Q01DX Z (sc), vehicle: water
[4] = dose: 600.0 mg/kg/injection, schedule: Q01DX Z (sc), vehicle: water
[5] = dose: 5.0 mg/kg/injection, schedule: Q01DX Z (sc), vehicle: methylcellulose (MC)
[6] = dose: 8.4 mg/kg/injection, schedule: Q01DX Z (sc), vehicle: methylcellulose (MC)
[7] = dose: 14.0 mg/kg/injection, schedule: Q01DX Z (sc), vehicle: methylcellulose (MC)
[8] = dose: 8.4 mg/kg/injection, schedule: Q01DX Z (sc), vehicle: water
[9] = dose: 14.0 mg/kg/injection, schedule: Q01DX Z (sc), vehicle: water
[10] = dose: 23.0 mg/kg/injection, schedule: Q01DX Z (sc), vehicle: water
[11] = dose: 39.0 mg/kg/injection, schedule: Q01DX Z (sc), vehicle: water
[12] = dose: 65.0 mg/kg/injection, schedule: Q01DX Z (sc), vehicle: water
[13] = dose: 108.0 mg/kg/injection, schedule: Q01DX Z (sc), vehicle: water
[14] = dose: 108.0 mg/kg/injection, schedule: Q01DX Z (sc), vehicle: methylcellulose (MC)
[15] = dose: 180.0 mg/kg/injection, schedule: Q01DX Z (sc), vehicle: methylcellulose (MC)
[16] = dose: 300.0 mg/kg/injection, schedule: Q01DX Z (sc), vehicle: methylcellulose (MC)
[17] = dose: 65.0 mg/kg/injection, schedule: Q01DX Z (sc), vehicle: methylcellulose (MC)
[18] = dose: 500.0 mg/kg/injection, schedule: Q01DX Z (sc), vehicle: methylcellulose (MC)

Measured: T/C

CN(N=O)C(=O)Nc1c[nH]c(=O)[nH]c1=O
inactive: dose: 14.0 mg/kg/injection, schedule: Q01DX Z (sc), vehicle: saline 90 % of control | dose: 23.0 mg/kg/injection, schedule: Q01DX Z (sc), vehicle: saline 100 % of control | dose: 39.0 mg/kg/injection, schedule: Q01DX Z (sc), vehicle: saline 105 % of control | dose: 65.0 mg/kg/injection, schedule: Q01DX Z (sc), vehicle: saline 95 % of control | dose: 108.0 mg/kg/injection, schedule: Q01DX Z (sc), vehicle: saline 100 % of control

CCCCCCCCCCCCCCCCNC(=S)N/N=C/c1ccccc1OC
inactive: dose: 78.0 mg/kg/injection, schedule: Q01DX Z (sc), vehicle: water 100 % of control | [1] 105 % of control | [2] 111 % of control | [3] 105 % of control | [4] 100 % of control

COc1cc([C@@H]2c3cc4c(cc3[C@H](O)[C@H]3COC(=O)[C@H]23)OCO4)cc(OC)c1OC
inactive: [5] 109 % of control | [6] 109 % of control | [7] 104 % of control | dose: 23.0 mg/kg/injection, schedule: Q01DX Z (sc), vehicle: methylcellulose (MC) 109 % of control

CN(C)c1ccc(Nc2c3ccccc3nc3ccccc23)cc1
inactive: dose: 93.0 mg/kg/injection, schedule: Q01DX Z (sc), vehicle: saline 104 % of control | dose: 155.0 mg/kg/injection, schedule: Q01DX Z (sc), vehicle: saline 113 % of control | dose: 259.0 mg/kg/injection, schedule: Q01DX Z (sc), vehicle: saline 109 % of control | dose: 432.0 mg/kg/injection, schedule: Q01DX Z (sc), vehicle: saline 113 % of control

O=C(Nc1ccc(C2=NCCN2)cc1)c1cccc(C(=O)Nc2ccc(C3=NCCN3)cc2)c1
active: [9] 230 % of control | [10] 235 % of control | [11] 270 % of control | [12] 265 % of control | [13] 270 % of control
inactive: [8] 110 % of control

Nc1ncnc2[nH]ncc12
inactive: dose: 3.0 mg/kg/injection, schedule: Q01DX Z (sc), vehicle: methylcellulose (MC) 100 % of control | [5] 112 % of control | [6] 112 % of control and 115 % of control | [7] 108 % of control | dose: 23.3 mg/kg/injection, schedule: Q01DX Z (sc), vehicle: methylcellulose (MC) 91 % of control | dose: 38.9 mg/kg/injection, schedule: Q01DX Z (sc), vehicle: methylcellulose (MC) 120 % of control | dose: 46.8 mg/kg/injection, schedule: Q01DX Z (sc), vehicle: methylcellulose (MC) 116 % of control | dose: 64.8 mg/kg/injection, schedule: Q01DX Z (sc), vehicle: methylcellulose (MC) 100 % of control | dose: 78.0 mg/kg/injection, schedule: Q01DX Z (sc), vehicle: methylcellulose (MC) 100 % of control | [14] 100 % of control | dose: 130.0 mg/kg/injection, schedule: Q01DX Z (sc), vehicle: methylcellulose (MC) 91 % of control | [15] 100 % of control | [16] 100 % of control

CS(=O)(=O)OCC(=O)NCCNC(=O)COS(C)(=O)=O
inactive: dose: 39.0 mg/kg/injection, schedule: Q01DX Z (sc), vehicle: methylcellulose (MC) 105 % of control | [17] 105 % of control | [14] 110 % of control | [15] 110 % of control | [16] 115 % of control | [18] 100 % of control

CSc1ncnc2c1ncn2C1OC(CO)C(O)C1O (stereo not drawn)
inactive: dose: 5.0 mg/kg/injection, schedule: Q#A X Z (sc), vehicle: water 100 % of control | dose: 8.4 mg/kg/injection, schedule: Q#A X Z (sc), vehicle: water 100 % of control | [9] 100 % of control | dose: 14.0 mg/kg/injection, schedule: Q#A X Z (sc), vehicle: water 105 % of control | [10] 100 % of control and 105 % of control | dose: 23.0 mg/kg/injection, schedule: Q02DX Z (sc), vehicle: water 100 % of control | dose: 23.0 mg/kg/injection, schedule: Q#A X Z (sc), vehicle: water 111 % of control | [11] 111 % of control | dose: 39.0 mg/kg/injection, schedule: Q02DX Z (sc), vehicle: water 105 % of control | dose: 39.0 mg/kg/injection, schedule: Q## X Z (sc), vehicle: water 111 % of control | dose: 39.0 mg/kg/injection, schedule: Q#A X Z (sc), vehicle: water 111 % of control | dose: 65.0 mg/kg/injection, schedule: Q01DX001 (sc), vehicle: water 100 % of control | [12] 111 % of control | dose: 65.0 mg/kg/injection, schedule: Q02DX Z (sc), vehicle: water 100 % of control | dose: 65.0 mg/kg/injection, schedule: Q## X Z (sc), vehicle: water 105 % of control | dose: 108.0 mg/kg/injection, schedule: Q01DX001 (sc), vehicle: water 111 % of control | [13] 122 % of control | dose: 108.0 mg/kg/injection, schedule: Q02DX Z (sc), vehicle: water 111 % of control | dose: 108.0 mg/kg/injection, schedule: Q## X Z (sc), vehicle: water 111 % of control | dose: 180.0 mg/kg/injection, schedule: Q01DX001 (sc), vehicle: water 122 % of control | dose: 180.0 mg/kg/injection, schedule: Q02DX Z (sc), vehicle: water 105 % of control | dose: 180.0 mg/kg/injection, schedule: Q## X Z (sc), vehicle: water 116 % of control | dose: 300.0 mg/kg/injection, schedule: Q01DX001 (sc), vehicle: water 122 % of control | dose: 300.0 mg/kg/injection, schedule: Q## X Z (sc), vehicle: water 122 % of control

NS(=O)(=O)c1ncnc2nc[nH]c12
inactive: [17] 100 % of control | [14] 105 % of control

O=c1[nH]cc(N(CCCl)CCCl)c(=O)[nH]1
active: dose: 5.0 mg/kg/injection, schedule: Q01DX Z (sc), vehicle: other 150 % of control and 160 % of control
inactive: dose: 0.23 mg/kg/injection, schedule: Q01DX Z (sc), vehicle: other 100 % of control | dose: 0.39 mg/kg/injection, schedule: Q01DX Z (sc), vehicle: other 100 % of control | dose: 0.65 mg/kg/injection, schedule: Q01DX Z (sc), vehicle: other 100 % of control | dose: 1.08 mg/kg/injection, schedule: Q01DX Z (sc), vehicle: other 100 % of control | dose: 1.8 mg/kg/injection, schedule: Q01DX Z (sc), vehicle: other 105 % of control and 110 % of control | dose: 3.0 mg/kg/injection, schedule: Q01DX Z (sc), vehicle: other 110 % of control and 115 % of control | dose: 8.4 mg/kg/injection, schedule: Q01DX Z (sc), vehicle: other 100 % of control and 120 % of control | dose: 14.0 mg/kg/injection, schedule: Q01DX Z (sc), vehicle: other 120 % of control

CCNc1nncs1
inactive: dose: 65.0 mg/kg/injection, schedule: Q01DX Z (sc), vehicle: other 120 % of control
active: dose: 180.0 mg/kg/injection, schedule: Q01DX Z (sc), vehicle: other 150 % of control | dose: 300.0 mg/kg/injection, schedule: Q01DX Z (sc), vehicle: other 175 % of control

CCNC(=O)c1cccnc1
inactive: [8] 100 % of control | dose: 77.8 mg/kg/injection, schedule: Q01DX Z (sc), vehicle: water 100 % of control | [1] 95 % of control | [2] 100 % of control | [3] 100 % of control | [4] 100 % of control | dose: 1000.0 mg/kg/injection, schedule: Q01DX Z (sc), vehicle: water 109 % of control

C[C@]12CCC(=O)C=C1CC[C@@H]1[C@@H]2[C@@H](O)C[C@@]2(C)[C@H]1CC[C@]2(O)C(=O)CO
inactive: [17] 100 % of control | [14] 100 % of control | [15] 100 % of control | [16] 100 % of control | [18] 100 % of control
